Experiments:
[1] = test system: T cells; assay: LNP association and GFP mRNA expression in T cells of human PBMCs; assay type: cell-based; settings: PEG lipid component of the LNP, FIG. 33
Method: In a second series of experiments, additional compounds, were tested in the LNPs for their ability to enhance delivery to T cells. For these experiments, the association of the LNP with cells and the expression of mRNA-encoding protein within the transfected cells was assessed at the cell-by-cell level. Peripheral blood mononuclear cells (PBMCs) from human donors were used. PBMCs were predominately T cells (40-60%), B cells (3-15%), and monocytes (15-35%), but also contained small numbers of other cell types. LNPs were incubated with serum or PBS for 30 minutes and then added to the PBMCs. The LNP concentration was 0.050 mg/ml, the LNP volume was 0.1 ml.
LNPs contained 0.1% Rhodamine-DOPE in addition to the other LNP components to facilitate detection. Thus, the ratios set forth in the tables below include 0.1 for the rhodamine label. For example, 50:10:10:27.9:2:0.1 AL:DSPC:chol:sterol:Cmp 428 indicates 50% amino lipid as the ionizable lipid, 10% DSPC as the phospholipid, 10% cholesterol, 27.9% phytosterol, 2% Compound 428 as the PEG lipid and 0.1% for the rhodamine-DOPE label. To prepare a non-labeled LNP, the same ratios are used except that the 0.1% rhodamine label is omitted and an additional 0.1% of structural lipid (cholesterol or cholesterol/phytosterol blend) is used (e.g., 27.9% becomes 28%).
Cells were sorted by flow cytometry into subsets based on expression of certain markers: CD3 (T cells), CD20 (B cells), and CD3-, CD20-, CD14+(Monocytes).
mRNA encoding GFP was used as a model agent to effect expression of an intracellular protein.
When conducting flow cytometry, the Y-axis was signal from the rhodamine tag on the LNP and the X-axis was the GFP signal showing expression of the protein.
The “associated” population is any rhodamine+ and/or GFP+ cell and the percent of these cells was calculated by dividing by the total number of cells. The “expression” population is any GFP+ cell and the percent of these cells was calculated by dividing by the total number of cells. The percent of associated cells expressing was obtained by dividing the % expressing cells by the % associated cells.

[2] = test system: CD3+ T cells; assay: T cell transfection in vitro with varied LNP components, mOX40L mRNA; assay type: cell-based, human; settings: as ionizable lipid or PEG lipid component, Table 23
Method: In this example, human peripheral blood mononuclear cells (PBMCs) from two different Donors (Donor 1 and Donor 2) were incubated in the presence of mRNA encoding mouse OX40L (mOX40L) (20 ng or 50 ng) encapsulated in each of the three different LNP compositions tested in Example 3. PBS was used as a negative control. Human PBMCs were incubated ex vivo with the various LNPs at 37° C. After 24 hours, cells were analyzed by flow cytometry for mOX40L protein expression in CD3+ T cells.
In this Example, LNPs were made with various lipid components and at different ratios and were tested for their ability to transfect T cells in vitro. Transfection was performed as in Example 5 using LNPs encapsulating an mRNA encoding mouse OX40L.
In a first set of experiments, phytosterol was used as the immune cell delivery potentiating lipid and other lipid constituents of the LNP were varied.

[3] = test system: monocytes; assay: Sterol panel in LNPs, delivery in vivo (FIG. 40); settings: Cmpd X/sterol/Cmpd 428 LNPs, Y-axis percentage of CD3+ cells in spleen expressing mOX40L
Method: In a second series of experiments, an additional panel of sterol compounds was tested in LNPs for monocyte delivery in vivo. The results for this panel of sterols tested for the structural lipid component of the LNP are shown in the bar graph of FIG. 40. […] The bars/lanes on the X-axis labeled 1-9 correspond to the following LNP compositions tested for mRNA delivery in vivo: Lane 1 is PBS. Lane 2 is Cmpd X/Cmpd 428, Lane 3 is Cmpd X/β sitosterol/Cmpd 428, Lane 4 is Cmpd X/β-sitosterol-d7/Cmpd 428, Lane 5 is Cmpd X/brassicasterol/Cmpd 428, Lane 6 is Cmpd X/unnamed sterol/Cmpd 428, Lane 7 is Cmpd X/Cmpd S-30/Cmpd 428, Lane S is Cmpd X/Cnpd S-32/Cmpd 428, Lane 9 is Cmpd X/Cmpd S-31/Cmpd 428.

[4] = test system: T cells; assay: LNP association and GFP mRNA expression in T cells of human PBMCs; assay type: cell-based; settings: third series, in vitro, FIG. 35

Row | SMILES | immune cell delivery potentiating ability in T cells, PEG lipid panel [1] | delivery to T cells with phytosterol-containing LNP [2] | immune cell delivery potentiating ability in monocytes, additional sterol panel in vivo [3] | immune cell delivery potentiating ability in T cells, additional sterol panel [4]
1 | CCCCCCCCCCCCCCCCCC(=O)OCCOCCOCCOCCOCCOCCOCCOCCOCCOCCOCCOCCOCCOCCOCCOCCOCCOCCOCCOCCOCCOCCOCCOCCOCCOCCOCCOCCOCCOCCOCCOCCOCCOCCOCCOCCOCCOCCOCCOCCOCCOCCOCCOCCOCCO [Compound 428] | exhibited immune cell delivery potentiating ability in T cells | enhanced delivery to T cells |  | 
2 | CC(C)[C@@H](C)/C=C/[C@@H](C)[C@H]1CC[C@H]2[C@@H]3CC=C4C[C@@H](O)CC[C@]4(C)[C@H]3CC[C@]12C [brassicasterol] |  |  | exhibited immune cell delivery potentiating ability in monocytes | exhibited immune cell delivery potentiating ability in T cells

Reference: US20230027864A1, “COMPOSITIONS AND METHODS FOR DELIVERY OF AGENTS TO IMMUNE CELLS” (ModernaTX, Inc., priority 2018, published 2023)
